Reference: the supplement of paper PMC10307832

Experiments:
Test in all cases: relative viability (nuclei count vs DMSO), 5 days (fraction); higher = more cells survive
Ponatinib + Pemetrexed = compound: Cc1ccc(C(=O)Nc2ccc(CN3CCN(C)CC3)c(C(F)(F)F)c2)cc1C#Cc1cnc2cccnn12 [Ponatinib] + Nc1nc2[nH]cc(CCc3ccc(C(=O)N[C@@H](CCC(=O)O)C(=O)O)cc3)c2c(=O)[nH]1 [Pemetrexed] (partner 0.2 µM)
How it was run: (§1)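 Medians of duplicate plates are given as relative viability. That measure is the nuclei count in treated wells divided by the count in vehicle wells. Counts were taken on 4× images of lung cancer cell lines in 1536-well plates, 5 days after pin-tool dosing the day after seeding with one drug alone or a fixed anchor-drug dose plus five library-drug doses (not always all listed) in √10 steps.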

Ponatinib + Linsitinib = compound: Cc1ccc(C(=O)Nc2ccc(CN3CCN(C)CC3)c(C(F)(F)F)c2)cc1C#Cc1cnc2cccnn12 [Ponatinib] + C[C@]1(O)C[C@@H](c2nc(-c3ccc4ccc(-c5ccccc5)nc4c3)c3c(N)nccn32)C1 [Linsitinib] (partner 1 µM)
How it was run: as §1

Ponatinib + Dasatinib = compound: Cc1ccc(C(=O)Nc2ccc(CN3CCN(C)CC3)c(C(F)(F)F)c2)cc1C#Cc1cnc2cccnn12 [Ponatinib] + Cc1nc(Nc2ncc(C(=O)Nc3c(C)cccc3Cl)s2)cc(N2CCN(CCO)CC2)n1 [Dasatinib] (partner 0.075 µM)
How it was run: as §1

Pazopanib + Lapatinib = compound: Cc1ccc(Nc2nccc(N(C)c3ccc4c(C)n(C)nc4c3)n2)cc1S(N)(=O)=O [Pazopanib] + CS(=O)(=O)CCNCc1ccc(-c2ccc3ncnc(Nc4ccc(OCc5cccc(F)c5)c(Cl)c4)c3c2)o1 [Lapatinib] (partner 2 µM)
How it was run: as §1

Cell Line | relative viability (Ponatinib + Pemetrexed; first compound 0.002 µM) | relative viability (Ponatinib + Pemetrexed; first compound 0.006325 µM) | relative viability (Ponatinib + Pemetrexed; first compound 0.06325 µM) | relative viability (Ponatinib + Pemetrexed; first compound 0.2 µM) | relative viability (Ponatinib + Linsitinib; first compound 0.006325 µM) | relative viability (Ponatinib + Linsitinib; first compound 0.06325 µM) | relative viability (Ponatinib + Linsitinib; first compound 0.2 µM) | relative viability (Ponatinib + Dasatinib; first compound 0.002 µM) | relative viability (Ponatinib + Dasatinib; first compound 0.006325 µM) | relative viability (Ponatinib + Dasatinib; first compound 0.06325 µM) | relative viability (Ponatinib + Dasatinib; first compound 0.2 µM) | relative viability (Pazopanib + Lapatinib; first compound 0.01 µM) | relative viability (Pazopanib + Lapatinib; first compound 0.03162 µM) | relative viability (Pazopanib + Lapatinib; first compound 0.1 µM) | relative viability (Pazopanib + Lapatinib; first compound 0.3162 µM) | relative viability (Pazopanib + Lapatinib; first compound 1 µM) | relative viability (Ponatinib + Linsitinib; first compound 0.002 µM)
NCI-H1648 | 0.574 | 0.667 | 0.63 | 0.618 | – | – | – | – | – | – | – | – | – | – | – | – | –
NCI-H1395 | 0.755 | 0.819 | 0.871 | 0.624 | 1.05 | 0.915 | 0.832 | 0.392 | 0.404 | 0.427 | 0.393 | 0.788 | 1.27 | 0.981 | 1.05 | 1.1 | –
NCI-H2347 | 0.41 | 0.444 | 0.474 | 0.485 | 0.918 | 1.05 | 0.974 | 0.302 | 0.301 | 0.404 | 0.362 | 0.86 | 0.971 | 1.08 | 0.989 | 1.02 | 0.913
HCC-366 | 0.128 | 0.154 | 0.191 | 0.201 | 0.701 | 1.02 | 0.606 | 0.563 | 0.621 | 0.644 | 0.54 | 1.09 | 1.03 | 1.09 | 1.15 | 1.03 | 0.699
201T | 0.319 | 0.324 | 0.346 | 0.352 | 1.11 | 1.06 | 1.01 | 0.61 | 0.593 | 0.593 | 0.461 | 0.971 | 0.998 | 1.04 | 1.04 | 1.06 | 0.958
HCC-827 | 0.234 | 0.304 | 0.288 | 0.247 | 0.968 | 1.03 | 0.966 | 0.241 | 0.344 | 0.296 | 0.248 | 0.169 | 0.177 | 0.122 | 0.181 | 0.191 | 1.03
NCI-H650 | 0.815 | 0.965 | 0.948 | 0.872 | 0.83 | 0.809 | 0.743 | 0.37 | 0.456 | 0.492 | 0.411 | 0.814 | 1.08 | 0.933 | 0.909 | 1.36 | 0.641
NCI-H2023 | 0.17 | 0.222 | 0.235 | 0.186 | 0.711 | 0.781 | 0.601 | 0.494 | 0.522 | 0.807 | 0.409 | 0.509 | 0.806 | 0.73 | 0.791 | 1.35 | 0.666
NCI-H596 | 0.478 | 0.467 | 0.48 | 0.469 | 1.01 | 1.08 | 0.792 | 0.505 | 0.61 | 0.479 | 0.373 | 0.931 | 1.03 | 1.03 | 0.981 | 1.17 | 1.03
SK-LU-1 | 0.978 | 1.07 | 0.958 | 0.84 | 1.19 | 1.18 | 0.997 | 0.19 | 0.178 | 0.172 | 0.137 | 0.903 | 0.942 | 1.18 | 0.976 | 0.871 | 0.943
